According to ChEMBL document CHEMBL2073919, “cDNA cloning and functional characterization of rat intestinal monocarboxylate transporter” (Biochem Biophys Res Commun, 1995):

Target: T1, Monocarboxylate transporter 1 (Rattus norvegicus) (UniProt P53987)
T1 sequence (whole entry): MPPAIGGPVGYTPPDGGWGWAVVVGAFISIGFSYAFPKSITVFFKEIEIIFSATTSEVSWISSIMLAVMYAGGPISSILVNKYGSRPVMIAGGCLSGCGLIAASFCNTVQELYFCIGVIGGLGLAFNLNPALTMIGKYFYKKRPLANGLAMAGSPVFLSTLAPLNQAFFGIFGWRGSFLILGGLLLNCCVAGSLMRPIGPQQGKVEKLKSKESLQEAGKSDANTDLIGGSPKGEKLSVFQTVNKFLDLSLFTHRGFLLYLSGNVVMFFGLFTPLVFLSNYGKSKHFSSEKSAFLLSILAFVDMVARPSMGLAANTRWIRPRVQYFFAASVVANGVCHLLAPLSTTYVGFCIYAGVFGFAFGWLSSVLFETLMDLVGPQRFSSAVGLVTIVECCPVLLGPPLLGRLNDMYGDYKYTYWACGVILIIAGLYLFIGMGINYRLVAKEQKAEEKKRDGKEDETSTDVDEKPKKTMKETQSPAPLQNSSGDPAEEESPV
Assay: TP_TRANSPORTER: uptake in Xenopus laevis oocytes
Format: functional, cell-based
Settings: Oocyte

SMILES: C[C@@H](O)C(=O)O
- Activity: substrate [+]

SMILES: C[C@H](O)C(=O)O
- Activity: substrate [+]
